Measured values reported in ChEMBL document CHEMBL5579830, “Design and synthesis of 6-C-alkyl-DMDP type nanomolar inhibitors of β-galactosidase and β-glucosidase based on broussonetine S and related derivatives” (Eur J Med Chem, 2024).
pEC50, pIC50: −log10 of the molar value.

What was measured:
[1] = Inhibition of snail beta-mannosidase using p-nitrophenyl glycoside as substrate assessed as release of p-nitrophenol by spectrometric analysis; design: species or system Helix pomatia
[2] = Inhibition of bovine liver beta-galactosidase using p-nitrophenyl glycoside as substrate assessed as release of p-nitrophenol by spectrometric analysis; design: species or system Bos taurus
[3] = molecular target: T1, Tissue alpha-L-fucosidase (Bos taurus) (UniProt Q2KIM0); assay: Inhibition of bovine kidney alpha-L-fucosidase using p-nitrophenyl glycoside as substrate assessed as release of p-nitrophenol at 1000 uM by spectrometric analysis relative to control
T1 sequence (whole entry): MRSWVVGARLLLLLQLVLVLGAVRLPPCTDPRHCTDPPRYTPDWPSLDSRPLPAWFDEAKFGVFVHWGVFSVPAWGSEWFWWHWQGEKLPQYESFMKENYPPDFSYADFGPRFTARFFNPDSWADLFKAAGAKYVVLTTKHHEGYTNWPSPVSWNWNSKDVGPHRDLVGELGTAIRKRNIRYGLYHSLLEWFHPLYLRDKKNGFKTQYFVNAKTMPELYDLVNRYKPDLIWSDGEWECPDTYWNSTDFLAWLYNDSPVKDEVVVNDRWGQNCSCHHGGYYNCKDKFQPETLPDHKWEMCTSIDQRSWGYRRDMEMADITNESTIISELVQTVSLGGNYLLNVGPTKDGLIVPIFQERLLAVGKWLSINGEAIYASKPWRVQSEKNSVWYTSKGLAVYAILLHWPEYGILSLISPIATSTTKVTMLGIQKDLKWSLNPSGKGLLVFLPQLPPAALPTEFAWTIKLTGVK

[4] = molecular target: T2, Alpha-mannosidase (Canavalia ensiformis) (UniProt C0HJB3); assay: Inhibition of jack bean alpha-mannosidase using p-nitrophenyl glycoside as substrate assessed as release of p-nitrophenol at 1000 uM by spectrometric analysis relative to control
T2 sequence (whole entry): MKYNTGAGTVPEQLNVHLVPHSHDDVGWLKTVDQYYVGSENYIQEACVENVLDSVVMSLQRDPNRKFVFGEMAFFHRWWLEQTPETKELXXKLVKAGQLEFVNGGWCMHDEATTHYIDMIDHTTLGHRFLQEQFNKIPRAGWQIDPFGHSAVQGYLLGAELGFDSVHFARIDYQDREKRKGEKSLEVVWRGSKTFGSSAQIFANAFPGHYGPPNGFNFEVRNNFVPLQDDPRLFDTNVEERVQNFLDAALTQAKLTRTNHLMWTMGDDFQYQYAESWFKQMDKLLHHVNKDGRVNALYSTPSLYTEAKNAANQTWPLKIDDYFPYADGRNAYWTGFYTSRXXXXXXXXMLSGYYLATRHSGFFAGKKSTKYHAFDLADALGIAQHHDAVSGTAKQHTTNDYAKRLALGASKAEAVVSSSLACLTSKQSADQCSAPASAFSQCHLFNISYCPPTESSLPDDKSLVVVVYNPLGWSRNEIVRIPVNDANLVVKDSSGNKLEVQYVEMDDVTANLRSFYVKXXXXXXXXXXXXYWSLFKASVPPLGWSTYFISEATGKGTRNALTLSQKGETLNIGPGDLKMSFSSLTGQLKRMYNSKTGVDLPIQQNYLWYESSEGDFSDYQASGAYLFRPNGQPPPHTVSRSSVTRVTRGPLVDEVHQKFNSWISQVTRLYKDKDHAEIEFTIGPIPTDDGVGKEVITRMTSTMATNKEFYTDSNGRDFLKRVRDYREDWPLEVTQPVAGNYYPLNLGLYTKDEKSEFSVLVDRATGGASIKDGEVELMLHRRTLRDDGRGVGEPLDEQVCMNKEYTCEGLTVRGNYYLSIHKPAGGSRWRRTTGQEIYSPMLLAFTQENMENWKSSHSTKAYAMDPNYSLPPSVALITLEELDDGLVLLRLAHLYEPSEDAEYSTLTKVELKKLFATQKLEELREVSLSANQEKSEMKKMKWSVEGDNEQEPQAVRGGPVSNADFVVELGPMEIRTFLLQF

[5] = molecular target: Alpha-galactosidase (Coffea arabica) (UniProt Q42656); assay: Inhibition of coffee bean alpha-galactosidase using p-nitrophenyl glycoside as substrate assessed as release of p-nitrophenol at 1000 uM by spectrometric analysis relative to control
[6] = Inhibition of almond beta-glucosidase using p-nitrophenyl glycoside as substrate assessed as release of p-nitrophenol by spectrometric analysis; design: species or system Prunus dulcis
[7] = Inhibition of Aspergillus niger amyloglucosidase using p-nitrophenyl glycoside as substrate assessed as release of p-nitrophenol by spectrometric analysis
[8] = Inhibition of Escherichia coli beta-glucuronidase using p-nitrophenyl glycoside as substrate assessed as release of p-nitrophenol by spectrometric analysis
[9] = molecular target: Lysosomal alpha-glucosidase (Homo sapiens, UniProt P10253); assay: Inhibition of human lysosome alpha-glucosidase using p-nitrophenyl glycoside as substrate assessed as release of p-nitrophenol by spectrometric analysis
[10] = Inhibition of rice alpha-glucosidase using p-nitrophenyl glycoside as substrate assessed as release of p-nitrophenol by spectrometric analysis; design: species or system Oryza sativa
[11] = molecular target: Alpha-glucosidase (Saccharomyces cerevisiae S288c, UniProt P53341+P38158+P07265); assay: Inhibition of yeast alpha-glucosidase using p-nitrophenyl glycoside as substrate assessed as release of p-nitrophenol by spectrometric analysis; format: protein assay
[12] = tested on: MKN-45; assay: cells; conditions: Homo sapiens, MKN-45, 48 h
[13] = molecular target: T3, Lysosomal acid glucosylceramidase (Homo sapiens, UniProt P04062); assay: Inhibition of human lysosome beta-glucosidase using p-nitrophenyl glycoside as substrate assessed as release of p-nitrophenol by spectrometric analysis
T3 sequence (P04062 whole entry): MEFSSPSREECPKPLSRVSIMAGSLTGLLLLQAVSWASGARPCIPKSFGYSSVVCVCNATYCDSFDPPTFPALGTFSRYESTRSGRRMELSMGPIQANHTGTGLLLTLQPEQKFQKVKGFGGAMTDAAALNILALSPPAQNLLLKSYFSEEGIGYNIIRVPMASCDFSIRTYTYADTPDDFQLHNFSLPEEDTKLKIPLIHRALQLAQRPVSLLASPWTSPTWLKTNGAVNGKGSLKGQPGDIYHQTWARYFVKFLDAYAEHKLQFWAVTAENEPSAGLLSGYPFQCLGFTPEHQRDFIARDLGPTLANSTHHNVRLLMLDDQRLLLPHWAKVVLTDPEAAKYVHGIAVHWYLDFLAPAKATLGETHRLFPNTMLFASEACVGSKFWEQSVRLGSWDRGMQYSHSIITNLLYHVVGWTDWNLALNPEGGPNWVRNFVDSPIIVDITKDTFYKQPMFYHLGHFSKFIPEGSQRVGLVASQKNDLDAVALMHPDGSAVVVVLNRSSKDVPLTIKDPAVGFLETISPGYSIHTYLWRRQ

[14] = molecular target: T4, Glucosylceramidase (Bos taurus) (UniProt Q2KHZ8); assay: Inhibition of bovine liver beta-glucosidase using p-nitrophenyl glycoside as substrate assessed as release of p-nitrophenol at 1000 uM by spectrometric analysis relative to control
T4 sequence (whole entry): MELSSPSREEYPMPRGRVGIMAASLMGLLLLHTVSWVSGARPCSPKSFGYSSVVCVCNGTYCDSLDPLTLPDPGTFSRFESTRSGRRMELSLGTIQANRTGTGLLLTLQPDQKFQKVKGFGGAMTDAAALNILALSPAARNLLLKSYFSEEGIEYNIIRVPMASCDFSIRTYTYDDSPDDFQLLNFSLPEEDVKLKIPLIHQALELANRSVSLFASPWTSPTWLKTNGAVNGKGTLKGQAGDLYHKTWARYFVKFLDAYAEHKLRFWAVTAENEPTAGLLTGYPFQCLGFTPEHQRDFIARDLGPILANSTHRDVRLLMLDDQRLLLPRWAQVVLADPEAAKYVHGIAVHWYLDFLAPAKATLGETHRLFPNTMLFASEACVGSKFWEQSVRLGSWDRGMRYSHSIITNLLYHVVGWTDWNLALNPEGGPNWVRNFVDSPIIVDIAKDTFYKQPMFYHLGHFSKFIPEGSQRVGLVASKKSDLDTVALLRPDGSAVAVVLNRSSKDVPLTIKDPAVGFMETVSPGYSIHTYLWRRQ

Sequence of Alpha-galactosidase (Coffea arabica) (Q42656 16-378 limits assumed): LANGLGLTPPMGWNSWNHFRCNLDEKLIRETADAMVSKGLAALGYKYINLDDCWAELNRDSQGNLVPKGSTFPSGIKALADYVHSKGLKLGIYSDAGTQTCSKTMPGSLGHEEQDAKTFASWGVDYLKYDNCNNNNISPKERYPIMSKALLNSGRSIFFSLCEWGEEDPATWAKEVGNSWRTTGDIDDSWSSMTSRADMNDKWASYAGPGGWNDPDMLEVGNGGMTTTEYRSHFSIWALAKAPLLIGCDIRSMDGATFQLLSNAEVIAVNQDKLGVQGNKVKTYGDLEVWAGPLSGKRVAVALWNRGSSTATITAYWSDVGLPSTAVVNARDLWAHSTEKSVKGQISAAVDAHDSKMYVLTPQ

Row | pIC50 [2] | inhibition [3] [%] | inhibition [4] [%] | inhibition [5] [%] | pIC50 [6] | pIC50 [8] | SMILES | other results
1 | 4.54 | – | 0 | 0 | – | – | CCCCCCC[C@@H](O)[C@@H]1N[C@@H](CO)[C@H](O)[C@H]1O | –
2 | 7.21 | 6 | 0 | 4.7 | 5.55 | 5.54 | OCCC[C@H](O)CCCCCCCC[C@H](O)[C@H]1N[C@H](CO)[C@@H](O)[C@@H]1O | –
3 | 6.44 | – | 2.1 | 0 | 6.19 | – | CCCCCC[C@H](O)[C@H]1N[C@H](CO)[C@@H](O)[C@@H]1O | –
4 | 7.82 | – | 1.7 | 0 | 6.92 | – | CCCCCCC[C@@H](O)[C@H]1N[C@H](CO)[C@@H](O)[C@@H]1O | pIC50 [13]: 4.85; pIC50 [1]: 4.02; pIC50 [7]: 4.04
5 | 8.30 | 6.5 | 0 | 4.4 | 6.28 | 5.48 | OCCC[C@@H](O)CCCCCCCC[C@@H](O)[C@H]1N[C@H](CO)[C@@H](O)[C@@H]1O | pIC50 [1]: 4.21; pIC50 [7]: 4.21
6 | 6.13 | 4.3 | 2.2 | 4.8 | 4.04 | 4.25 | OCCC[C@@H](O)CCCCCCCC[C@H](O)[C@@H]1N[C@@H](CO)[C@H](O)[C@H]1O | pIC50 [10]: 4.96

Continued, compound first:

Row | SMILES | pIC50 [2] | inhibition [3] [%] | inhibition [4] [%] | inhibition [5] [%] | pIC50 [6] | pIC50 [8] | other results
7 | OCCC[C@H](O)CCCCCCCC[C@@H](O)[C@H]1N[C@H](CO)[C@@H](O)[C@@H]1O | 8.15 | 0.86 | 0 | 4.5 | 6.16 | 5.57 | pIC50 [1]: 4.15; pIC50 [7]: 4.14
8 | CCCCCCC[C@H](O)[C@@H]1N[C@@H](CO)[C@H](O)[C@H]1O | 4.39 | – | 2.6 | 0 | – | – | pIC50 [9]: 5.68; pIC50 [10]: 5.22
9 | OCCC[C@H](O)CCCCCCCC[C@@H](O)[C@@H]1N[C@@H](CO)[C@H](O)[C@H]1O | 5.41 | 1.1 | 0 | 4.11 | – | 4.46 | –
10 | CCCCCCCC[C@H](O)[C@H]1N[C@H](CO)[C@@H](O)[C@@H]1O.Cl | – | – | – | – | – | – | IC50 [11]: 101 µM
11 | CC(=O)O[C@H]1C(=O)[C@@]2(C)[C@H]([C@H](OC(=O)c3ccccc3)[C@]3(O)C[C@H](OC(=O)[C@H](O)[C@@H](NC(=O)c4ccccc4)c4ccccc4)C(C)=C1C3(C)C)[C@]1(OC(C)=O)CO[C@@H]1C[C@@H]2O [PACLITAXEL] | – | – | – | – | – | – | pEC50 [12]: 8.52
12 | CCCCCC[C@@H](O)[C@H]1N[C@H](CO)[C@@H](O)[C@@H]1O | 7.30 | – | 2.1 | 0 | 6.70 | – | pIC50 [13]: 4.14; pIC50 [7]: 4.04
13 | CCCCCCCCC[C@@H](O)[C@H]1N[C@H](CO)[C@@H](O)[C@@H]1O.Cl | – | – | – | – | – | – | IC50 [11]: 21 µM
14 | OCCC[C@@H](O)CCCCCCCCC[C@H]1N[C@H](CO)[C@@H](O)[C@@H]1O | 5.64 | 0 | 2.5 | 0 | – | 4.07 | –
15 | OCCC[C@@H](O)CCCCCCCC[C@H](O)C1N[C@H](CO)[C@@H](O)[C@@H]1O (single isomer, unassigned) | 7.34 | 0.43 | 0 | 4.6 | 5.74 | 5.60 | –
16 | CCCCCCCCC[C@H](O)[C@H]1N[C@H](CO)[C@@H](O)[C@@H]1O.Cl | – | – | – | – | – | – | IC50 [11]: 53 µM
17 | OCCC[C@H](O)CCCCCCCC[C@H](O)[C@@H]1N[C@@H](CO)[C@H](O)[C@H]1O | 5.29 | 5.9 | 0 | 4.9 | – | 4.54 | pIC50 [10]: 5.14
18 | CCCCCCC[C@H](O)[C@H]1N[C@H](CO)[C@@H](O)[C@@H]1O | 6.41 | – | 0.2 | 0 | 6.27 | – | –
19 | Cl.OCCC[C@@H](O)CCCCCCCC[C@@H](O)[C@@H]1N[C@@H](CO)[C@H](O)[C@H]1O | 5.64 | 8.6 | 0 | 4.1 | – | 4.34 | IC50 [11]: 49 µM
20 | OCCC[C@H](O)CCCCCCCCC[C@@H]1N[C@@H](CO)[C@H](O)[C@H]1O | 4.30 | 0 | 2.2 | 0.3 | – | – | inhibition [14]: 46.5%; pIC50 [10]: 5.92
21 | CCCCCCCC[C@@H](O)[C@H]1N[C@H](CO)[C@@H](O)[C@@H]1O.Cl | – | – | – | – | – | – | IC50 [11]: 28 µM
